From a compilation of properties of binary mixtures (doi:10.1016/j.fluid.2015.01.011)

Assay: xn = mol fraction of the nth substance listed
Conditions: 100 kPa

CC[n+]1ccn(C)c1.N#C[S-] + CCOS(=O)(=O)[O-].CC[n+]1ccn(C)c1
Conditions | electrical conductivity [S/m] | viscosity [mPa·s]
298.15 K, x1 = 0.199 | 0.421 | 96.4
298.15 K, x1 = 0.32 | 0.569 | 83.5
298.15 K, x1 = 0.429 | 0.745 | 65.3
298.15 K, x1 = 0.899 | 1.84 | 27.8
298.15 K, x1 = 0.9505 | 2.1 | 25
298.15 K, x1 = 1 | 2.32 | 23.1
303.15 K, x1 = 0.199 | 0.512 | 76.1
303.15 K, x1 = 0.32 | 0.696 | 66.5
303.15 K, x1 = 0.429 | 0.809 | 52.7
303.15 K, x1 = 0.67 | 1.38 | 35.8
303.15 K, x1 = 0.899 | 2.15 | 23.5
303.15 K, x1 = 0.9505 | 2.29 | 21.2
303.15 K, x1 = 1 | 2.67 | 19.68
308.15 K, x1 = 0.32 | 0.842 | 53.9
308.15 K, x1 = 0.429 | 1.09 | 43.1
308.15 K, x1 = 0.67 | 1.62 | 30
308.15 K, x1 = 0.899 | 2.5 | 20.07
308.15 K, x1 = 0.9505 | 2.79 | 18.2
308.15 K, x1 = 1 | 3.06 | 16.97
313.15 K, x1 = 0.199 | 0.733 | 61.2
313.15 K, x1 = 0.32 | 1 | 53.9
313.15 K, x1 = 0.67 | 1.88 | 30
313.15 K, x1 = 0.899 | 2.85 | 20.07
313.15 K, x1 = 0.9505 | 3.18 | 18.2
313.15 K, x1 = 1 | 3.47 | 16.97
318.15 K, x1 = 0.199 | 0.861 | 50.1
318.15 K, x1 = 0.32 | 1.19 | 44.4
318.15 K, x1 = 0.429 | 1.29 | –
318.15 K, x1 = 0.67 | 2.18 | –
318.15 K, x1 = 0.899 | 3.25 | –
318.15 K, x1 = 1 | 3.92 | 14.54
323.15 K, x1 = 0.199 | 1.02 | 34.7
323.15 K, x1 = 0.32 | 1.38 | 31.1
323.15 K, x1 = 0.429 | 1.52 | 25.7
323.15 K, x1 = 0.67 | 2.49 | 18.78
323.15 K, x1 = 0.9505 | 4.04 | 12.2
323.15 K, x1 = 1 | 4.38 | 11.49
328.15 K, x1 = 0.199 | – | 29.5
328.15 K, x1 = 0.32 | – | 26.6
328.15 K, x1 = 0.67 | – | 16.38
328.15 K, x1 = 0.899 | – | 11.78
328.15 K, x1 = 0.9505 | – | 10.86
328.15 K, x1 = 1 | – | 10.25
333.15 K, x1 = 0.199 | – | 25.3
333.15 K, x1 = 0.429 | – | 19.14
333.15 K, x1 = 0.67 | – | 14.35
333.15 K, x1 = 0.899 | – | 10.37
333.15 K, x1 = 0.9505 | – | 9.56
333.15 K, x1 = 1 | – | 9.02
338.15 K, x1 = 0.199 | – | 21.85
338.15 K, x1 = 0.32 | – | 19.89
338.15 K, x1 = 0.429 | – | 16.74
338.15 K, x1 = 0.67 | – | 12.76
338.15 K, x1 = 0.9505 | – | 8.75
338.15 K, x1 = 1 | – | 8.3
343.15 K, x1 = 0.199 | – | 19.06
343.15 K, x1 = 0.67 | – | 11.37
343.15 K, x1 = 0.899 | – | 8.53
343.15 K, x1 = 0.9505 | – | 7.92
343.15 K, x1 = 1 | – | 7.53
348.15 K, x1 = 0.199 | – | 16.75
348.15 K, x1 = 0.32 | – | 15.38
348.15 K, x1 = 0.429 | – | 13.08
348.15 K, x1 = 0.67 | – | 10.21
348.15 K, x1 = 0.899 | – | 7.74
348.15 K, x1 = 1 | – | 6.87
353.15 K, x1 = 0.199 | – | 14.87
353.15 K, x1 = 0.32 | – | 13.71
353.15 K, x1 = 0.429 | – | 11.68
353.15 K, x1 = 0.67 | – | 9.16
353.15 K, x1 = 0.899 | – | 6.96
353.15 K, x1 = 0.9505 | – | 6.48
353.15 K, x1 = 1 | – | 6.17

CC[n+]1ccn(C)c1.N#C[N-]C#N + CC[n+]1ccn(C)c1.N#C[S-]
Conditions | electrical conductivity, x2 = 0 [S/m] | electrical conductivity, x2 = 0.2585 [S/m] | electrical conductivity, x2 = 0.5112 [S/m] | electrical conductivity, x2 = 0.7603 [S/m] | viscosity, x2 = 0 [mPa·s] | viscosity, x2 = 0.2585 [mPa·s] | viscosity, x2 = 0.5112 [mPa·s] | viscosity, x2 = 0.7603 [mPa·s]
298.15 K | 2.84 | – | 2.51 | 2.41 | 14.78 | – | 18.27 | 20.62
303.15 K | 3.22 | 3.05 | 2.89 | 2.76 | 12.87 | 14.18 | 15.74 | 17.66
308.15 K | 3.63 | – | 3.27 | 3.14 | 11.3 | – | 13.7 | 15.3
313.15 K | 4.06 | 3.87 | 3.67 | 3.56 | 9.76 | 10.72 | 11.78 | 13.12
318.15 K | – | 4.33 | 4.14 | – | – | 9.75 | 10.66 | –
323.15 K | 5.02 | 4.81 | – | 4.48 | 8.01 | 8.73 | – | 10.47
328.15 K | – | – | – | – | 7.24 | – | 8.54 | 9.37
333.15 K | – | – | – | – | – | 6.92 | 7.51 | 8.25
338.15 K | – | – | – | – | 6 | – | 7.01 | 7.64
343.15 K | – | – | – | – | 5.51 | 5.94 | 6.4 | 6.95
348.15 K | – | – | – | – | 5.06 | 5.47 | – | 6.36
353.15 K | – | – | – | – | 4.52 | 4.89 | 5.25 | –

CCOS(=O)(=O)[O-].CC[n+]1ccn(C)c1 + CC[n+]1ccn(C)c1.N#C[S-]
x2 = 0
Conditions | electrical conductivity [S/m] | viscosity [mPa·s]
298.15 K | 0.308 | 96.9
303.15 K | 0.382 | 76.5
308.15 K | 0.469 | 61.6
313.15 K | 0.57 | –
318.15 K | 0.678 | –
323.15 K | 0.871 | 35
328.15 K | – | 29.7
333.15 K | – | 25.6
338.15 K | – | 22.04
343.15 K | – | 19.23
348.15 K | – | 16.89

[N-]=C=S.[NH4+] + CC[n+]1ccn(C)c1.N#C[S-]
Conditions | electrical conductivity, x1 = 0.039 [S/m] | electrical conductivity, x1 = 0.099 [S/m] | electrical conductivity, x1 = 0.1395 [S/m] | viscosity, x1 = 0.039 [mPa·s] | viscosity, x1 = 0.099 [mPa·s] | viscosity, x1 = 0.1395 [mPa·s]
298.15 K | 2.07 | 2.05 | 1.86 | 25.9 | 29.9 | 31.6
303.15 K | 2.38 | 2.37 | 2.17 | 22 | 25.2 | 26.5
308.15 K | 2.72 | 2.72 | 2.5 | 18.84 | 21.4 | 22.5
313.15 K | – | 3.11 | 2.88 | – | 18.21 | 19.1
318.15 K | – | 3.52 | – | – | 16 | –
323.15 K | 3.97 | 3.98 | – | 12.59 | 14.03 | –
328.15 K | – | – | – | – | 12.4 | 12.88
333.15 K | – | – | – | 9.85 | – | 11.33
338.15 K | – | – | – | 9.01 | 9.9 | 10.24
343.15 K | – | – | – | 8.16 | 8.91 | –
348.15 K | – | – | – | 7.42 | – | 8.32
353.15 K | – | – | – | 6.68 | – | –

CC[n+]1ccn(C)c1.N#C[S-] + [N-]=C=S.[NH4+]
x2 = 0
Conditions | electrical conductivity [S/m] | viscosity [mPa·s]
298.15 K | 2.32 | 23.1
303.15 K | 2.67 | 19.68
308.15 K | 3.06 | 16.97
313.15 K | 3.47 | 14.54
318.15 K | 3.92 | 12.98
328.15 K | – | 10.25
333.15 K | – | 9.02
338.15 K | – | 8.3
343.15 K | – | 7.53

CC[n+]1ccn(C)c1.N#C[S-] + CC[n+]1ccn(C)c1.N#C[N-]C#N
x1 = 1
Conditions | electrical conductivity [S/m] | viscosity [mPa·s]
298.15 K | 2.32 | 23.1
303.15 K | 2.67 | 19.68
308.15 K | 3.06 | 16.97
313.15 K | 3.47 | 14.54
323.15 K | 4.38 | 11.49
333.15 K | – | 9.02
348.15 K | – | 6.87
353.15 K | – | 6.17
